Source: publication PMC10412585 (Nature Communications, 2023)
Entries after “also recorded” stand apart in the source; their conditions may differ.

What was measured:
NKG2C+ NK cells = assay: NK cell activation assay with peptide-pulsed RMA-S/HLA-E cells; format: cell-based, human
Protocol: (§1) Fig. 4 NK cell stimulation assays. Assessment of effects of peptides on NK cell activity through incubation of NK cells, peptides, and (A) K562/HLA-E or (B) RMA-S/HLA-E target cells. […] Replicates for individual peptides are from different donors, with solid black lines indicating mean values. […] Representative gating for NKG2A^+/NKG2C^- and NKG2A^-/NKG2C^+ NK cells is shown in Supplemental Fig. 14. Source data are provided as a Source Data file.
In contrast to K562 cell lines which are targets for human NK cells, RMA-S cells (a TAP-deficient mouse cell line)[48] are inert to human NK cells and thus will not activate NK cells absent engagement of an activating receptor on the NK cells. […] We performed additional NK cell activation assays with RMA-S/HLA-E cells (Fig. 4B).
(§2) All analyses of human data were carried out in compliance with the relevant ethical regulations. Healthy blood donors gave informed consent at DRK Blutspendedienst Nord-Ost, Dresden, Germany, and buffy coats were obtained as approved by Charité ethics committee (EA4/059/17). PBMCs were isolated from human CMV-seropositive buffy coats by density centrifugation over Ficoll Paque Plus (GE Healthcare) and screened for the presence of NKG2C^+ NK cell expansions by flow cytometry to have sufficient frequencies of single-positive cells for parallel assessment of activation and inhibition via HLA-E[47]. Total NK cells from donors with NKG2C^+ expansions (>10% NKG2A^-/NKG2C^+ NK cells) were enriched with CD56 microbeads (Miltenyi Biotec) and cryopreserved in FBS with 10% v/v DMSO. After thawing, NK cells were washed with complete medium, stained with antibodies and Fixable Viability Dye eFluor 780 (Thermo Fisher) for 15 min at 4 °C in PBS, sorted as viable CD56^+ CD3^− cells, and rested in complete media overnight. […] Brefeldin A and Monensin (BD Biosciences) were added after a 1 h culture period. After an additional 5 h, the stimulation was stopped by centrifugation at 4 °C. Cells underwent surface staining, followed by fixation and intracellular staining using Inside Stain Kit (Miltenyi Biotec). Samples were analyzed by flow cytometry on an LSR Fortessa (BD Biosciences). Inhibition of NKG2A^+ NK cells and activation of NKG2C^+ NK cells was assessed by gating on the respective single-positive populations (Supplemental Fig. 14). Antibodies are listed in Supplemental Table 1: anti-human CD56 PE/Dazzle 594 (1:200 dilution), CD3 APC-eFluor 780 (1:50 dilution), anti-human CD159a (NKG2A) Biotin REAfinity (1:50 dilution), anti-human CD159c (NKG2C) PE REAfinity (1:100 dilution), anti-human CD107a (LAMP-1) Alexa Fluor 488 (1:400 dilution), anti-human IFN-γ PE-Vio 770 REAfinity (1:50 dilution), anti-human TNF-α Brilliant Violet 605 (1:50 dilution), anti-human CCL3 (MIP-1α) REAfinity (1:25 dilution).

HLA-E [1] = assay: HLA-E surface stabilization assay with RMA-S/HLA-E cells; format: cell-based, human; conditions: peptide 3-300 µM (Fig. 3: 30 µM) in OptiMEM, 16 h, 37 °C, anti-HLA-E 3D12, flow cytometry, n = 4 replicate experiments
Protocol: To probe top-predicted proteome-derived peptides (Tables 2 and 3) for HLA-E binding, we assessed their ability to stabilize surface-expressed HLA-E on RMA-S/HLA-E cells, a TAP-deficient mouse cell line engineered to express HLA-E and human β2M (Fig. 3 and Supplemental Fig. 8)[47].
Fig. 3 Peptide stabilization of HLA-E surface expression. Assessment of peptide-HLA-E binding via HLA-E surface stabilization assay with RMA-S/HLA-E cells incubated with 30 μM peptide. HLA-E expression is detected with an anti-HLA-E antibody. Measurements from n = 4 replicate experiments are shown, with solid black lines indicating mean values. […] Source data are provided as a Source Data file.
RMA-S/HLA-E cells were incubated with serial dilutions of peptides (3–300 µM, Genscript) in OptiMEM (ThermoFisher) for 16 h at 37 °C. Cells were washed with PBS, stained for HLA-E (Clone 3D12, Biolegend, 1:200 dilution) for 15 min at room temperature and analyzed by flow cytometry (analysis in FlowJo version 10). Peptide UBAC2_275-279 was ordered as a 5mer peptide (WNRLF) given the similarity with other WN peptides and hypothesis of a truncated peptide binding in the HLA-E groove. […] Measurements from replicate experiments are plotted in Fig. 3 and Supplemental Fig. 8.

NKG2A+/NKG2C- NK cells = assay: NK cell activation assay with peptide-pulsed K562/HLA-E cells, NKG2A+/NKG2C- NK cells; format: cell-based, human; conditions: K562/HLA-E target cells, 300 µM peptide ([…] µM BFAR263-271), E:T 2:1, 6 h; degranulation (CD107a), IFN-γ, TNF, CCL3; flow cytometry
Protocol: (§3) We hypothesized that our predicted proteome-derived peptides could affect NK cell activation through interactions with CD94/NKG2A and CD94/NKG2C. To investigate, we performed cell-based activation assays on primary NK cells (Fig. 4A). NK cells were co-incubated with peptide-pulsed HLA-E-expressing K562 cells, as described previously. The parental K562 human myelogenous leukemia cell line is a typical target to measure NK cell cytotoxicity and activation, allowing for assessment of both NKG2A-mediated inhibition and NKG2C-mediated activation. […] NKG2A^-/NKG2C^- NK cells served as internal control as these should be unaffected by peptide-HLA-E complexes (Supplemental Fig. 12).
as §1, §2

NKG2A-/NKG2C+ NK cells = assay: NK cell activation assay with peptide-pulsed K562/HLA-E cells, NKG2A-/NKG2C+ NK cells; format: cell-based, human; conditions: K562/HLA-E target cells, 300 µM peptide ([…] µM BFAR263-271), E:T 2:1, 6 h; degranulation (CD107a), IFN-γ, TNF, CCL3; flow cytometry
Protocol: as §3, §1, §2

HLA-E [2] = assay: Prometheus differential scanning fluorimetry of HLA-E with peptide; format: binding, human; conditions: refolded HLA-E*01:03/β2M 9 μg, 50x peptide to MHC ratio, high sensitivity capillary, 1 °C per minute 20-95 °C, first inflection point; DMSO control 33.8
Protocol: Differential scanning fluorimetry (DSF) experiments were performed with a Prometheus NanoTemper NT.48 (Munich, Germany) to measure protein stability, using intrinsic tryptophan fluorescence.
For these experiments, refolded empty HLA-E was generated. Human β2M plus a poly-histidine tag and HLA-E*01:03 extracellular α1, α2, and α3 domains plus an AviTag biotinylation tag were separately codon optimized for E. coli and cloned into the bacterial expression vector pET28a. Inclusion bodies for HLA-E and β2M were made in BL21 E. coli. Inclusion bodies were purified, homogenized, and dissolved, including denaturation in 8 M urea solution. Before refolding, each IB was mixed with an equal volume of Gdn-Cl solution (6 M Guanidine HCl, 500 mM Tris, 2 mM EDTA, 100 mM NaCl) and incubated overnight at 37 °C. β2M was injected dropwise with a 27-gauge needle into refolding buffer (100 mM pH 8.3 Tris, 400 mM L-arginine hydrochloride, 2 mM EDTA, 0.5 mM oxidized glutathione, 5 mM reduced glutathione, 0.2 mM PMSF) and incubated, stirring gently, at 4 °C for 1 h, after which an equal mass of HLA-E heavy chain was similarly injected. This solution incubated at 4 °C overnight, followed by two days of dialysis in 10 mM Tris + 50 mM NaCl. Protein was concentrated in 10 kDa molecular weight cutoff centrifugal concentrators and purified by size exclusion chromatography on an AKTAPURE FPLC (GE Healthcare, Chicago IL), using an S200 column followed by a S75 column.
Individual DSF reactions were set up with 9 μg of MHC and 100×, 50×, or 10× peptide to MHC ratio by molarity (peptides from GenScript). The final reaction volume was 20 μL and reaction mixtures were incubated at room temperature for 20–30 min.
Prometheus excitation power was set such that raw fluorescence counts were between 8000–15000 for each sample. Samples were heated at 1 °C per minute, from 20–95 °C. DSF measurements were taken in duplicate with high-sensitivity and standard capillaries. Melting temperatures were similar for a given peptide across conditions, and representative data from 50x ratio in high sensitivity capillary are presented. A secondary inflection point around 60 °C in most melts is consistent with melting of β2M[76]. […]
Supplemental Figure 9. Differential scanning fluorimetry data generated via Prometheus NanoTemper for predicted peptides with HLA-E. a) Raw 350/330 nm ratios and first derivative for samples. The second inflection point is consistent with β2M unfolding. b) Summary of Tm values for the first inflection point called by Prometheus software for these samples. […]

CD94/NKG2A = target: T1, CD94/NKG2A (Homo sapiens, UniProt P26715+Q13241); assay: Steady-state SPR of peptide-HLA-E single chain trimers with CD94/NKG2A; format: binding; conditions: SPR with CD94/NKG2A and CD94/NKG2C, Fig. 5B; taken as lower stability of the peptide-HLA-E complex
T1 construct: The C-terminus of human NKG2A or NKG2C ectodomain was connected via a GGSGGS linker to human CD94 ectodomain; AviTag biotinylation tag (C); poly-histidine tag (C); made in house; host or cells: baculovirus, High Five (Hi5) insect cells
Protocol: Specifically, we measured CD94/NKG2A and CD94/NKG2C affinity for HLA-E complexed with three sets of peptides. […] Third, we included […] peptide as a positive control.
Steady-state surface plasmon resonance experiments were performed with a Biacore T200 instrument. CD94/NKG2x in HBS-EP+ buffer was injected as analyte in a concentration range of 0.1 μM to 102.4 μM and flow rate of 10 μL/min at 25 °C. Data was fit with Prism 9.4 (GraphPad Software Inc; San Diego CA) to a “one site, specific binding” model. Sensorgrams are included in Supplemental Fig. 13.
For investigating WN peptides, biotinylated pMHC was immobilized at approximately 400 Response Units (RU) on a Series S SA sensor chip (Cytiva). […] CD94/NKG2A was injected followed by CD94/NKG2C.
For investigating human-derived peptides, Series S CM5 chips (Cytiva) were coupled to neutravidin and utilized. Biotinylated pMHC was immobilized at approximately 400 RU. On one chip, […] CD94/NKG2A was injected followed by CD94/NKG2C. On a second chip, PISD55-63 HLA-E SCT, AKAP6_388-396 HLA-E SCT, GTF3C5_293-301 HLA-E SCT, and reference HLA-DR401 were immobilized. CD94/NKG2C was injected followed by CD94/NKG2A. Rmax, fit values were calculated by Biacore software. Rmax, theoretical values were calculated using the analyte/ligand mass ratio (0.66) multiplied by the amount of ligand coupled to the chip.

T1 sequence (Q13241 whole entry, looked up, the tested form may be a part): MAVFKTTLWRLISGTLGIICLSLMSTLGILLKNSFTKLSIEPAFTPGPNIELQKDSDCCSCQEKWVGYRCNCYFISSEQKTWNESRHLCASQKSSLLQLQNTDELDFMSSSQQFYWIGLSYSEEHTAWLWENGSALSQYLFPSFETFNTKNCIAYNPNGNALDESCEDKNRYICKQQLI
T1 sequence (P26715 whole entry, looked up, the tested form may be a part): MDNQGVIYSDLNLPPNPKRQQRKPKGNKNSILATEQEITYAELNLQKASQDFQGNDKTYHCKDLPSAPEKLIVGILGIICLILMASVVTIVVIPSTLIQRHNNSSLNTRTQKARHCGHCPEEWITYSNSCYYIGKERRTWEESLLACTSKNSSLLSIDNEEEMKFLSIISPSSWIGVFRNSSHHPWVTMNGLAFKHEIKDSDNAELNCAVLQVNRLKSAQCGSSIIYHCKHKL

Row | Sequence | NKG2C-mediated NK cell activation (NKG2C+ NK cells) | stabilization of HLA-E surface expression (HLA-E [1]) | inhibitory effects on NKG2A+ cells (NKG2A+/NKG2C- NK cells) | activating effects on NKG2C+ cells (NKG2A-/NKG2C+ NK cells) | Tm (HLA-E [2]) | average percent CD107a+ (NKG2C+ NK cells; NKG2C+ NK cells with RMA-S/HLA-E cells, Fig. 4B, stated in author rebuttal) | maximal response units (Rmax) compared to theoretical maximum (CD94/NKG2A)
1 | QMPSRSLLF [CREB3L1_419-427] | activation similar to the weaker positive control ([…]) or between the two positive controls | strong binding that is weaker than VMAPRTLFL; also recorded: strong stabilization | more moderate inhibitory effects | strong activating effects | 46.2 °C | – | –
2 | TGPWRSLWI [GTF3C5_293-301, human peptide from General transcription factor 3C polypeptide 5] | detectable activation, though below both positive control examples | weak but detectable stabilization | minimal inhibitory effects | clear activating effects | – | 11.1% | lower maximal values compared to the theoretical maximum
3 | VLPHRTQFL [UL120_72-80, Merlin, CMV peptide from Membrane protein UL120, strain Merlin] | activation similar to the weaker positive control ([…]) or between the two positive controls | strong binding that is weaker than VMAPRTLFL; also recorded: strong HLA-E binding | strong inhibitory effects | strong activating effects | 45.7 °C | – | –
4 | VMPPRTLLL [HLA-A3-11, human peptide from HLA class I histocompatibility antigen] | activation similar to the weaker positive control ([…]) or between the two positive controls | HLA-E stabilization matching VMAPRTLFL peptide; also recorded: strong stabilization | strong inhibitory effects | strong activating effects | – | – | –
